According to paper PMC4076210, “Discovery of Novel AKT Inhibitors with Enhanced Anti-Tumor Effects in Combination with the MEK Inhibitor” (PLoS ONE, 2014):
Where two headings read alike, the source gives them in different places.

Legend:
Assay type in all cases: biochemical
CSK(h) = target: T1, CSK(h) (Homo sapiens, UniProt P41240); assay: Kinase panel
T1 construct: purchased Millipore KinaseProfiler

ROCK-II(r) = target: T2, ROCK-II(r) (Rattus norvegicus, UniProt Q62868); assay: Kinase panel
T2 construct: purchased Millipore KinaseProfiler
T2 sequence (Q62868 2-543 limits assumed): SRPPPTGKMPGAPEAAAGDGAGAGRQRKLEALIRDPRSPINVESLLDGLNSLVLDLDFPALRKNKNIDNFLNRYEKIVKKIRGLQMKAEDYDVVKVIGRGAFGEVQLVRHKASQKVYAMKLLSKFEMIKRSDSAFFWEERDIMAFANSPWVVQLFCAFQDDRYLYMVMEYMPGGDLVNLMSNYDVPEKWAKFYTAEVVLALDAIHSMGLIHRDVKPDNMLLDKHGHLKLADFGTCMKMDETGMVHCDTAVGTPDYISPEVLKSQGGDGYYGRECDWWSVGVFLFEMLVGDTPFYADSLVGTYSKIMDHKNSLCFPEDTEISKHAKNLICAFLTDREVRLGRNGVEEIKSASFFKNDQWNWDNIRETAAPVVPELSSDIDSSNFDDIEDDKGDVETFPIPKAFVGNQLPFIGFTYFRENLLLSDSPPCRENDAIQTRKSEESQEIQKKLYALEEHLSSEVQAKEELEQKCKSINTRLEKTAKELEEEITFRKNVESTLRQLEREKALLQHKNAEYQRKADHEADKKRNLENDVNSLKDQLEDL

Haspin(h) = target: T3, Haspin(h) (Homo sapiens, UniProt Q8TF76); assay: Kinase panel
T3 construct: purchased Millipore KinaseProfiler
T3 sequence (Q8TF76 1-798): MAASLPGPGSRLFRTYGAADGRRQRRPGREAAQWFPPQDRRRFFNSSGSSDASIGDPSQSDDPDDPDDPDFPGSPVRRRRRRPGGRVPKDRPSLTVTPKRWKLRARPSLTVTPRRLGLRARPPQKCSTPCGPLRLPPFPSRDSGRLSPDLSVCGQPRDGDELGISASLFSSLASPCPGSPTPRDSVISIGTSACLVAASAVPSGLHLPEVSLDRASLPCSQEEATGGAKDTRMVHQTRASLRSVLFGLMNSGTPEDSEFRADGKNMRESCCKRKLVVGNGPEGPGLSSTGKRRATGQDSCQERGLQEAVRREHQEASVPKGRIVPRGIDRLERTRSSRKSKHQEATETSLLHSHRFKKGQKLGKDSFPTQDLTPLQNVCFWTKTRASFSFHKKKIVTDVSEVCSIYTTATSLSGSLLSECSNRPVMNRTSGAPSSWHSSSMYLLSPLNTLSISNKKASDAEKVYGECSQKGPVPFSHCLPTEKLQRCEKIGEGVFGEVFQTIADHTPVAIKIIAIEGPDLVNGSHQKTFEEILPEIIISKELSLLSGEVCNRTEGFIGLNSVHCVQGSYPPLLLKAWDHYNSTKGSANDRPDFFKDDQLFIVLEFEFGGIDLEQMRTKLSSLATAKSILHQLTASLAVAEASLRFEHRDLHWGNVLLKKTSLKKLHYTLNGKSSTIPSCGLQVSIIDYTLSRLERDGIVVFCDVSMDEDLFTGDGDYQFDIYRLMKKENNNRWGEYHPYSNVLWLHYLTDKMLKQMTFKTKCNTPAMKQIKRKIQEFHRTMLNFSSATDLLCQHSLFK

Abl(Y253F)(h) = target: T4, Abl(Y253F)(h) (Homo sapiens, UniProt P00519, Y253F); assay: Kinase panel
T4 construct: purchased Millipore KinaseProfiler

CK1γ1(h) = target: T5, CK1γ1(h) (Homo sapiens, UniProt Q9HCP0); assay: Kinase panel
T5 construct: purchased Millipore KinaseProfiler
T5 sequence (Q9HCP0 whole entry): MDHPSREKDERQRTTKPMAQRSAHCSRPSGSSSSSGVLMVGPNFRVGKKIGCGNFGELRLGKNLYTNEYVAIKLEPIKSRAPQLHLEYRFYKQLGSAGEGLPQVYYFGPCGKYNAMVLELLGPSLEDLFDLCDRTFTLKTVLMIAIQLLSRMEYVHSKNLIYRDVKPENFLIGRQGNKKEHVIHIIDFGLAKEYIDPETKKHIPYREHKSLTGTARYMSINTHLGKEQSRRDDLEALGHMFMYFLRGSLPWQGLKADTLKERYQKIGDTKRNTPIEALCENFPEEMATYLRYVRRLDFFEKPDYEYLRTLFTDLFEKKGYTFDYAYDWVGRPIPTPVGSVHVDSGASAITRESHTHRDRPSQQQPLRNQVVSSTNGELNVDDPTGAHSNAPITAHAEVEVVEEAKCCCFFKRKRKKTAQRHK

Rse(h) = target: T6, Rse(h) (Homo sapiens, UniProt Q06418); assay: Kinase panel
T6 construct: purchased Millipore KinaseProfiler
T6 sequence (Q06418 41-890): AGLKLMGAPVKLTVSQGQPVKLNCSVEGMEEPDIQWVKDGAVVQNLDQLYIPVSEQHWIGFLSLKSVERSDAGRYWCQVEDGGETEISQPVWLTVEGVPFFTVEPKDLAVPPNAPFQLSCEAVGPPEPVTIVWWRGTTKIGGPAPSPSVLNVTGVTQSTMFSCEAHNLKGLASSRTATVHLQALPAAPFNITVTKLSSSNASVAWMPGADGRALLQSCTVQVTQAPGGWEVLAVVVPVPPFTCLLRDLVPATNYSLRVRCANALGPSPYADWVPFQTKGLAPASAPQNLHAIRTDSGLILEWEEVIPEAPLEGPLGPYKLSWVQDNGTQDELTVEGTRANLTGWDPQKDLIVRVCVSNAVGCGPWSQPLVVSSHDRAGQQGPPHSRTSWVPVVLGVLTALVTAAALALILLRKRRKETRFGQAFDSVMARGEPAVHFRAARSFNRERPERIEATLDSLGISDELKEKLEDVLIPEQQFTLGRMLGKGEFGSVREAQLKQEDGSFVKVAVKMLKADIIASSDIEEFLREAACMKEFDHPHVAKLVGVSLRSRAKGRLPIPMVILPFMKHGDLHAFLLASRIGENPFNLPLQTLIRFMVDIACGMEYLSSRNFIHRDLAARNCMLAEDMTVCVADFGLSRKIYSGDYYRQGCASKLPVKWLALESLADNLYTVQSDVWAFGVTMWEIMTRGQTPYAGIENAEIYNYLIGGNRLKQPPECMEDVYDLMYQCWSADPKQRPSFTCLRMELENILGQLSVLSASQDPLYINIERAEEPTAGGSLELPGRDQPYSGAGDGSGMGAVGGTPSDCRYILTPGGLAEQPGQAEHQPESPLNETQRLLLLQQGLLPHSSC

EphA4(h) = target: T7, EphA4(h) (Homo sapiens, UniProt P54764); assay: Kinase panel
T7 construct: purchased Millipore KinaseProfiler
T7 sequence (P54764 20-986): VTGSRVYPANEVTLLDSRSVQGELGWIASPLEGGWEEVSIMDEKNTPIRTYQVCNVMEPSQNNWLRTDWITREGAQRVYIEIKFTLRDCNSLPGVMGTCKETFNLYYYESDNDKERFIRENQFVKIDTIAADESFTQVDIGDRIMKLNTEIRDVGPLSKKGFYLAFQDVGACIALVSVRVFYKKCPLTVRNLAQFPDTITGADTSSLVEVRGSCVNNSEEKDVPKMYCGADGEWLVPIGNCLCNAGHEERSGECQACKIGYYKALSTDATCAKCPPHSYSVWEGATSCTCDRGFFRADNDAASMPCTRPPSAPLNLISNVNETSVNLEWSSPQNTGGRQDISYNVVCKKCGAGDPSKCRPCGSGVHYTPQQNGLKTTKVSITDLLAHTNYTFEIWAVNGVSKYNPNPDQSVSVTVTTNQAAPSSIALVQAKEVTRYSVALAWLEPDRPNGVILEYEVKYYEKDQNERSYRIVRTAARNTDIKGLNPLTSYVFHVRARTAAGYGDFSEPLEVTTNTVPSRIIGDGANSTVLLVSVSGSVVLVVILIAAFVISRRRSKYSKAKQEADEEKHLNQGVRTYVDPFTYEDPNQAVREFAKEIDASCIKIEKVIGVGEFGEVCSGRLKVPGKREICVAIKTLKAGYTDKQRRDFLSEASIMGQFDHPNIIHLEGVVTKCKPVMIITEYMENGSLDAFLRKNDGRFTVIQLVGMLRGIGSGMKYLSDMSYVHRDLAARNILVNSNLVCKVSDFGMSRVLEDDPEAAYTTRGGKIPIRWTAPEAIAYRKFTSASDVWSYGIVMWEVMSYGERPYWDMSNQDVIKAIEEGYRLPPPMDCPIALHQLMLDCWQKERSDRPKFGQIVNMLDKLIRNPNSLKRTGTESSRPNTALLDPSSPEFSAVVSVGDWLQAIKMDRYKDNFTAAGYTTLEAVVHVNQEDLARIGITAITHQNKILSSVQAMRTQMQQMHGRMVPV

Snk(h) = target: T8, Snk(h) (Homo sapiens, UniProt Q9NYY3); assay: Kinase panel
T8 construct: purchased Millipore KinaseProfiler
T8 sequence (Q9NYY3 whole entry): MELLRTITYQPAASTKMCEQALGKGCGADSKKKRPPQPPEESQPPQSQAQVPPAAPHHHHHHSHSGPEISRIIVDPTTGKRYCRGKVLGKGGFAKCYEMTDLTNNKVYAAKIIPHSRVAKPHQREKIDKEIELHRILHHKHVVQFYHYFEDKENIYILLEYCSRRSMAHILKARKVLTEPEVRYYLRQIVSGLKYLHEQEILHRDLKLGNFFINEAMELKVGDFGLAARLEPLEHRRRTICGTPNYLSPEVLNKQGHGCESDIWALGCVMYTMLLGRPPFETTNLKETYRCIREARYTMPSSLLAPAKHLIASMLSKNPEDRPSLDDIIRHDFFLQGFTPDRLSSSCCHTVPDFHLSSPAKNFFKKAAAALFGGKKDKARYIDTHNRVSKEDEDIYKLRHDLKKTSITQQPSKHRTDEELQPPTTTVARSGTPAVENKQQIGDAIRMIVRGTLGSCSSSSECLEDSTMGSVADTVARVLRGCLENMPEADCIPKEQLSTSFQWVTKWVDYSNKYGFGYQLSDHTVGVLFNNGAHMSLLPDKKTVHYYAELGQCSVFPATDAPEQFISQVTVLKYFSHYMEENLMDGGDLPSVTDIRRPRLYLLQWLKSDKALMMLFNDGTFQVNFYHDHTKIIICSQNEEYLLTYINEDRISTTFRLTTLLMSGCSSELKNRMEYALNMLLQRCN

PKCγ = PKCγ (Homo sapiens, UniProt P05129); assay: Kinase IC50 assay
PAK5(h) = target: T9, PAK5(h) (Homo sapiens, UniProt Q9P286); assay: Kinase panel
T9 construct: purchased Millipore KinaseProfiler
T9 sequence (Q9P286 whole entry): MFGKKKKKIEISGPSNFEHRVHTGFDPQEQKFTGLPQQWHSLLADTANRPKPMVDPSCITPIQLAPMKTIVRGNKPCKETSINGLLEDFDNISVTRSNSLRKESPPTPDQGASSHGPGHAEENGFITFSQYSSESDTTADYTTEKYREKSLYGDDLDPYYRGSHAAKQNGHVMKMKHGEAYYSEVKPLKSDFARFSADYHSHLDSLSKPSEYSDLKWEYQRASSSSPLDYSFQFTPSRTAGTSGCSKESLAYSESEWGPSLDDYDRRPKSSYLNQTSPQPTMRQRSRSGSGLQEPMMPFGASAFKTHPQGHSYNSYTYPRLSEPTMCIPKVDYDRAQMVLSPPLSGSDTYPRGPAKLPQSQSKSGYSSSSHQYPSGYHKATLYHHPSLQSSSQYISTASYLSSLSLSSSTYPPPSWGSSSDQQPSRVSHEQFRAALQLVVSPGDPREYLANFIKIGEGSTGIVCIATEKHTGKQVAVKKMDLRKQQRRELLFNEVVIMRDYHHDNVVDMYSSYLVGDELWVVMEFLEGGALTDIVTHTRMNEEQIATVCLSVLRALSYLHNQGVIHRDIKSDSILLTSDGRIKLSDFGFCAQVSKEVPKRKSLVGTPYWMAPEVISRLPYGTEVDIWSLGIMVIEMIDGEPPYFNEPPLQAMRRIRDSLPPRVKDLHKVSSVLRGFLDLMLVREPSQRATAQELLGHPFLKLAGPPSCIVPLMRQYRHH

T1 sequence (P41240 whole entry): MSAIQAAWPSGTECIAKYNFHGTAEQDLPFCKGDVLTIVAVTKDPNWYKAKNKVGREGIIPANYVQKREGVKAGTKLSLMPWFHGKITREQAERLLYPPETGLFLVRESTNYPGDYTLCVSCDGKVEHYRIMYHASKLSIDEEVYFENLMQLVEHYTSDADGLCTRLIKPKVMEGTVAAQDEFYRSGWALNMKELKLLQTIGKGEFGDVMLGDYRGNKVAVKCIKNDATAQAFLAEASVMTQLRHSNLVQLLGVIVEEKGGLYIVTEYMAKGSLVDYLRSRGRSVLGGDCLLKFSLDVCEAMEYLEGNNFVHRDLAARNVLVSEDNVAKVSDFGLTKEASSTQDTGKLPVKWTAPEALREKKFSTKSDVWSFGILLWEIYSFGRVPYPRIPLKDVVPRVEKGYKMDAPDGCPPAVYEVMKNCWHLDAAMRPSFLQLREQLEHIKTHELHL

Work on `Cn1ncc(Cl)c1-c1cc(C(=O)N[C@H](CN)Cc2cccc(F)c2)sc1Cl` [GSK2110183] yielded an inhibition at 0.5 µM (CSK(h)) of 11%, an inhibition at 10 µM (CSK(h)) of 15% and an inhibition at 0.5 µM (ROCK-II(r)) of 73%. For the same compound, the inhibition at 10 µM (ROCK-II(r)) was 97%, the inhibition at 0.5 µM (Haspin(h)) was 46% and the inhibition at 10 µM (Haspin(h)) was 90%. It also gave an inhibition at 0.5 µM (Abl(Y253F)(h)) of 2%, an inhibition at 10 µM (Abl(Y253F)(h)) of 9% and an inhibition at 0.5 µM (CK1γ1(h)) of -1%. The inhibition at 10 µM (CK1γ1(h)) was 20%, the inhibition at 0.5 µM (Rse(h)) was 6% and the inhibition at 10 µM (Rse(h)) was 51%. For the same compound, the inhibition at 0.5 µM (EphA4(h)) was -1%, the inhibition at 10 µM (EphA4(h)) was -12% and the inhibition at 0.5 µM (Snk(h)) was -8%. The inhibition at 10 µM (Snk(h)) was 18%, the IC50 (PKCγ) was greater than 1000 nM and the inhibition at 0.5 µM (PAK5(h)) was 2%. It also gave an inhibition at 10 µM (PAK5(h)) of 49%.
Work on `Cn1ncc(Cl)c1-c1cc(C(=O)N[C@H](CN)Cc2ccc(F)c(F)c2)oc1Cl` [GSK2141795] yielded an inhibition at 0.5 µM (CSK(h); 0.5 µM, read-out: % Inhibition) of 0%, an inhibition at 10 µM (CSK(h); 10 µM, read-out: % Inhibition) of -14% and an inhibition at 0.5 µM (ROCK-II(r); 0.5 µM, read-out: % Inhibition) of 72%. For the same compound, the inhibition at 10 µM (ROCK-II(r); 10 µM, read-out: % Inhibition) was 98%, the inhibition at 0.5 µM (Haspin(h); 0.5 µM, read-out: % Inhibition) was 76% and the inhibition at 10 µM (Haspin(h); 10 µM, read-out: % Inhibition) was 101%. The inhibition at 0.5 µM (Abl(Y253F)(h); 0.5 µM, read-out: % Inhibition) was -18%, the inhibition at 10 µM (Abl(Y253F)(h); 10 µM, read-out: % Inhibition) was -11% and the inhibition at 0.5 µM (CK1γ1(h); 0.5 µM, read-out: % Inhibition) was -6%. It also gave an inhibition at 10 µM (CK1γ1(h); 10 µM, read-out: % Inhibition) of 39%, an inhibition at 0.5 µM (Rse(h); 0.5 µM, read-out: % Inhibition) of 2% and an inhibition at 10 µM (Rse(h); 10 µM, read-out: % Inhibition) of 33%. For the same compound, the inhibition at 0.5 µM (EphA4(h); 0.5 µM, read-out: % Inhibition) was -10%, the inhibition at 10 µM (EphA4(h); 10 µM, read-out: % Inhibition) was -8% and the inhibition at 0.5 µM (Snk(h); 0.5 µM, read-out: % Inhibition) was -12%. The inhibition at 10 µM (Snk(h); 10 µM, read-out: % Inhibition) was 15%, the IC50 (PKCγ) was 200 nM and the inhibition at 0.5 µM (PAK5(h); 0.5 µM, read-out: % Inhibition) was 0%. The inhibition at 10 µM (PAK5(h); 10 µM, read-out: % Inhibition) was 40%.
